According to patent US20160304557A1, “Method for preventing or treating heart diseases by using a composition containing an isolated peptide” (Tunghai University, priority 2014, published 2016):

How the values were obtained:
[1] = test system: ANP; test: Western blot of ANP in heart tissue of high-fat diet mice; assay type: in vivo, C57BL/6 mice; details: groups 3 to 5 (5, 10, 25 mg/kg/day intraperitoneally) in comparison of group 2
Procedure: (§1) The male C57BL/6 mice at the age of 6 weeks were divided into 5 groups for 8 mice in each group. […]
(§2) Protein concentration of the extract was determined by Lowry's protein assay method. […]
(§3) The protein extraction of the mice heart tissues from the each group in example 2 were processed by the western blot method in example 3 to observe the expressions of the indicator of heart hypertrophy and heart failure. The results were shown at FIGS. 12 and 13, wherein the tubulin was used for an internal control in FIG. 12 and the expression levels of the ANP and BNP in the mice heart tissues from the each group was calculated basing on the expression level of tubulin in each figures of FIG. 13.

[2] = test system: calcineurin; test: Western blot of calcineurin in heart tissue of high-fat diet mice; assay type: in vivo, C57BL/6 mice; details: groups 3 to 5 (5, 10, 25 mg/kg/day intraperitoneally) in comparison of group 2
Procedure: as §1, §2
(§4) The protein extraction of the mice heart tissues from the each group in example 2 were processed by the western blot method in example 3 to observe the expressions of nuclear factor of activated T-cells C3 (NFTA-C3) and calcineurin in the mice heart tissues from the each group. The results were shown at FIGS. 4 and 5, wherein the tubulin was used for an internal control in FIG. 4 and the expression levels of NFTA-C3 and calcineurin were calculated basing on the expression level of tubulin in each figure of FIG. 5.

[3] = test system: JNK; test: Western blot of JNK in heart tissue of high-fat diet mice; assay type: in vivo, C57BL/6 mice; details: groups 3 to 5 (5, 10, 25 mg/kg/day intraperitoneally) versus group 2
Procedure: (§5) The male C57BL/6 mice at the age of 6 weeks were divided into 5 groups for 8 mice in each group. The each group of mice were feed at 24±2° C. of temperature, humidity of 55±10% and 12/12 light cycle for 8 weeks, wherein the group 1 was control group on a normal diet (PMI Nutrition International, Brentwood, Mo., USA) and injected 0.9% saline intraperitoneally; the group 2 was fed high-fat diet to induce the mice into heart hypertrophy model and injected 0.9% saline intraperitoneally; the group 3 was fed high-fat diet and the peptide of SEQ ID NO.:1 was injected intraperitoneally with the dose of 5 mg/kg/day; the group 4 was fed high-fat diet and the peptide of SEQ ID NO.:1 was injected intraperitoneally with the dose of 10 mg/kg/day; the group 5 was fed high-fat diet and the peptide of SEQ ID NO.:1 was injected intraperitoneally with the dose of 25 mg/kg/day. […]
as §2
(§6) The protein extraction of the mice heart tissues from the each group in example 2 were processed by the western blot method in example 3 to observe the expressions of p38α protein and JNK. The results were shown at FIGS. 8 and 9, wherein the tubulin was used for an internal control in FIG. 8 and the expression levels of p38α protein and JNK were calculated basing on the expression level of tubulin in each figure of FIG. 9.

[4] = test system: caspase-3; test: Western blot of activated caspase-3 in heart tissue of high-fat diet mice; assay type: in vivo, C57BL/6 mice; details: groups 3 to 5 (5, 10, 25 mg/kg/day intraperitoneally) in comparison of group 2
Procedure: as §1, §2
as §6, with “related apoptosis regulatory proteins in the mice heart tissues from the each group.” for “p38α protein and JNK.”, “2” for “8”, “3,” for “9,”, “related apoptosis regulatory proteins” for “p38α protein and JNK”, “3.” for “9.”

[5] = test system: myocardial cells; test: H&E stained section of heart tissues of high-fat diet mice; assay type: in vivo; details: groups 3 and 4 (15 and 25 mg/kg/day intraperitoneally) in comparison with group 2
Procedure: The male C57BL/6 mice at the age of 6 weeks were divided into 5 groups for 8 mice in each group. The each group of mice were feed at 24±2° C. of temperature, humidity of 55±10% and 12/12 light cycle for 8 weeks, wherein the group 1 was control group on a normal diet (PMI Nutrition International, Brentwood, Mo., USA) and injected 0.9% saline intraperitoneally; the group 2 was fed high-fat diet to induce the mice into heart hypertrophy model and injected 0.9% saline intraperitoneally; the group 3 was fed high-fat diet and the peptide of SEQ ID NO.:1 was injected intraperitoneally with the dose of 5 mg/kg/day; the group 4 was fed high-fat diet and the peptide of SEQ ID NO.:1 was injected intraperitoneally with the dose of 10 mg/kg/day; the group 5 was fed high-fat diet and the peptide of SEQ ID NO.:1 was injected intraperitoneally with the dose of 25 mg/kg/day. The injection period of each group of mice was between the third week to the sixth week of feeding period. The high-fat diet contained 60% of energy as fat.
The feeding method was the same with example 1. Mice were divided into 4 groups for feeding at different conditions. The intraperitoneal injection was performed between the third week and the sixth week of the feeding period. […]

[6] = test system: nuclear factor of activated T-cells C3 (NFTA-C3); test: Western blot of NFTA-C3 in heart tissue of high-fat diet mice; assay type: in vivo, C57BL/6 mice; details: groups 3 to 5 (5, 10, 25 mg/kg/day intraperitoneally) in comparison of group 2
Procedure: as §1, §2, §4

[7] = test system: FGF-2, ERK-1, UPA, MMP-2 and MMP-9; test: Western blot of related proteins of cardiac fibrosis pathway in heart tissue of high-fat diet mice; assay type: in vivo, C57BL/6 mice; details: MMP-2, MMP-9, groups 3 to 5 (5, 10, 25 mg/kg/day intraperitoneally) versus group 2
Procedure: as §1, §2
The protein extraction of the mice heart tissues from the each group in example 2 were processed by the western blot method in example 3 to observe the expressions of the related proteins of cardiac fibrosis pathway including: FGF-2, ERK-1, UPA, MMP-2 and MMP-9. The results were shown at FIGS. 10 and 11, wherein the tubulin was used for an internal control in FIG. 10 and the expression levels of FGF-2, ERK-1, UPA, MMP-2 and MMP-9 in the mice heart tissues from the each group was calculated basing on the expression level of tubulin in each figures of FIG. 11.

[8] = test system: cytochrome C; test: Western blot of cytochrome C in heart tissue of high-fat diet mice; assay type: in vivo, C57BL/6 mice; details: groups 3 to 5 (5, 10, 25 mg/kg/day intraperitoneally) in comparison of group 2
Procedure: as §1, §2
as §6, with “related apoptosis regulatory proteins in the mice heart tissues from the each group.” for “p38α protein and JNK.”, “2” for “8”, “3,” for “9,”, “related apoptosis regulatory proteins” for “p38α protein and JNK”, “3.” for “9.”

[9] = test system: BNP; test: Western blot of BNP in heart tissue of high-fat diet mice; assay type: in vivo, C57BL/6 mice; details: groups 3 to 5 (5, 10, 25 mg/kg/day intraperitoneally) in comparison of group 2
Procedure: as §1, §2, §3

[10] = test system: STAT-3, IL-6, MEK-5 and ERK-5; test: Western blot of related signal transduction proteins of heart hypertrophy in heart tissue of high-fat diet mice; assay type: in vivo, C57BL/6 mice; details: STAT-3, IL-6, MEK-5, ERK-5, groups 3 to 5 (5, 10, 25 mg/kg/day intraperitoneally) versus group 2
Procedure: as §1, §2
The protein extraction of the mice heart tissues from the each group in example 2 were processed by the western blot method in example 3 to observe the expressions of the related signal transduction proteins of heart hypertrophy including: STAT-3, IL-6, MEK-5 and ERK-5. The results were shown at FIGS. 6 and 7, wherein the tubulin was used for an internal control in FIG. 6 and the expression levels of the related signal transduction proteins of heart hypertrophy in the mice heart tissues from each group was calculated basing on the expression level of tubulin in FIG. 7.

[11] = test system: Bcl-2 protein; test: Western blot of Bcl-2 in heart tissue of high-fat diet mice; assay type: in vivo, C57BL/6 mice; details: groups 3 to 5 (5, 10, 25 mg/kg/day intraperitoneally) in comparison of group 2 (high-fat diet, saline)
Procedure: as §1, §2
as §6, with “related apoptosis regulatory proteins in the mice heart tissues from the each group.” for “p38α protein and JNK.”, “2” for “8”, “3,” for “9,”, “related apoptosis regulatory proteins” for “p38α protein and JNK”, “3.” for “9.”

[12] = test system: p38α protein; test: Western blot of p38α protein in heart tissue of high-fat diet mice; assay type: in vivo, C57BL/6 mice; details: groups 3 to 5 (5, 10, 25 mg/kg/day intraperitoneally) versus group 2
Procedure: as §5, §2, §6

SEQ ID NO.: 1: isolated peptide which amino acid sequence is SEQ ID NO.: 1; extracted from organisms, separated by hydrolysis or chemical synthesis (VHVV)
expression levels of ANP in the heart tissues [1]: obviously decreased
expression levels of calcineurin in the heart cells [2]: obviously decreased
expression levels of JNK in the heart cells [3]: significantly lower
expression levels of activated caspase-3 in the heart cell [4]: obviously decreased
arrangement of myocardial cells (H&E stained heart sections) [5]: more orderly and closely
expression levels of NFTA-C3 in the heart cells [6]: obviously decreased
related proteins of cardiac fibrosis pathway in mice heart tissues [7]: obviously lower
expression levels of cytochrome C in the heart cell [8]: obviously decreased
expression levels of BNP in the heart tissues [9]: obviously decreased
expression levels of the related signal transduction proteins of heart hypertrophy in the heart tissues [10]: obviously lower
expression levels of Bcl-2 in the heart cell [11]: obviously increased
expression levels of p38α protein in the heart cells [12]: significantly lower
